Consider one compound from patent publication US20120141381A1, “Methods For Loading Contrast Agents Into A Liposome” (Duke University Office of Technology & Venture, priority 2009, published 2012).

This data set in a line: Measurement of relaxivity of Gd-HP-DO3A-Dox-LTSL at 1.5T. It counts as physicochemical. As to conditions: free contrast agent. The method, then:
T1 of all of the solutions was calculated from the fit of signal intensity vs. inversion time in images obtained with a T1-weighted inversion recovery sequence with variable inversion time (T1=50, 75, 100, 150, 300, 450, 600, 900, 1050 ms). Relaxivity was obtained as the slope of 1/T1 vs. Gd-HP-DO3A concentration. All imaging was performed using a clinical 1.5T MR scanner (Philips Medical Systems, Best, The Netherlands).

In the case of `CC(O)CN1CCN(CC(=O)[O-])CCN(CC(=O)[O-])CCN(CC(=O)[O-])CC1.[Gd+3]` (stereo not shown) [ProHance®, gadolinium complex of 10-(2-hydroxy-propyl)-1,4,7,10-tetraazacyclododecane-1,4,7-triacetic acid], the “relaxivity (slope of 1/T1 vs concentration)” value was 4.05 ± 0.14 mM⁻¹ s⁻¹.
